These results are taken from patent US20230265068A1, “TRANSIENT RECEPTOR POTENTIAL CANONICAL 3 INHIBITORS AND METHODS OF USE THEREOF” (University of Tennessee Research Foundation, priority 2020, published 2023).

Data set [1] can be described thus: maximum tolerated dose / in vivo toxicity study in mice. Conditions: mouse, in vivo. Here is the method:
The in vivo study was performed in compliance with the NIH Animal Use Guidelines and protocol approved by the Institutional Animal Care and Use Committee (IACUC) at the University of Tennessee Health Science Center (UTHSC, Memphis, Tenn.). NSG mice at 8 weeks (n=2) and ICR mice at 12 weeks (n=3) were housed with a 12:12-hour light-dark cycle and fed a breeder chow diet. Daily IP injections of 200 mg/kg of compounds 22 or 79 were administered for five consecutive injections in five mice, respectively, which were followed to monitor the mortality rate. Body weights of the mice were recorded daily.
(§1) The metabolic stability of compound 22 was tested prior to the next phase of in vivo study. […] The maximum tolerated dose (MTD) study was subsequently performed to investigate its in vivo toxicity (FIGS. 4A and 4B). The second major limitation of Pyr3 is its toxicity due to its alkylating tail moiety. While replacing only the fast-metabolizing head ester group in Pyr3 with a stable amide (compound 79) improved metabolic stability, a single IP injection of compound 79 at 200 mg/kg killed all mice within 24 h.
Compound 79 is a metabolically stable version of Pyr3. Mice treated daily with compound 22 or compound 79 (n=5) for 5 consecutive days. All the mice were treated with either compound 22 or 79 at 200 mg/kg (IP). […]

Data set [2] can be described thus: metabolic stability in mouse liver microsomes. The class given is in vitro ADME. Conditions: mouse liver microsomes. On the procedure:
as §1
(In general: Liver microsomes are vesicles of endoplasmic reticulum, rich in cytochrome P450 enzymes.)

Data set [3] is described as follows: metabolic stability in rat liver microsomes. The format is in vitro ADME. Conditions: rat liver microsomes. Here is the method: as §1
Data set [4] can be described thus: metabolic stability in human liver microsomes. The class given is in vitro ADME. Conditions: human liver microsomes. On the procedure:
as §1

Data set [5] relates to hippocampal neurons. In words: neuroprotection against Aβ-containing conditioned medium (7PA2) in primary hippocampal neurons. The format is cell-based, rat. Conditions: 14 DIV neurons, 7PA2 medium, 16 hours, different concentrations. Here is the method: To visualize dendritic spines, 14 DIV hippocampal neurons at low density (5,000 cells per 35 mm dish) were exposed to 7PA2 conditioned media (CM), which contains naturally secreted Aβ, or CHO control media or for 16 h, with or without cotreatment with the two inhibitor compounds, followed by immunocytochemistry with MAP2 and DAPI counterstaining.
(§2) To explore the potential biological effects of compound 22 in a TRPC3 related disease model, its neuroprotective ability in primary cultured neurons (14 DIV prepared from E17 rats as described) was evaluated. The effects on neuron dendritic morphology were measured by imaging. Mature hippocampal neurons (DIV=14) were treated with CHO control medium, or naturally secreted Aβ-containing conditioned medium (7PA2), or in combination with compound 22 or Pyr3 at different concentrations, for 16 hours, followed by immunocytochemistry using an antibody against MAP2 and DAPI (data not shown). […] Hippocampal neurons (DIV=14) were treated with compound 22 or Pyr3 alone at different concentrations, followed by immunocytochemistry staining with MAP2 and DAPI (data not shown).

For data set [6], the system named is hippocampal neurons. In words: toxicity of compound alone in hippocampal neuronal culture. The class given is cell-based, rat. Conditions: compound alone at different concentrations. On the procedure:
as §2

For data set [7], the target named is T1, TRPC3 (Homo sapiens, UniProt Q13507).
T1 sequence (Q13507 1-921): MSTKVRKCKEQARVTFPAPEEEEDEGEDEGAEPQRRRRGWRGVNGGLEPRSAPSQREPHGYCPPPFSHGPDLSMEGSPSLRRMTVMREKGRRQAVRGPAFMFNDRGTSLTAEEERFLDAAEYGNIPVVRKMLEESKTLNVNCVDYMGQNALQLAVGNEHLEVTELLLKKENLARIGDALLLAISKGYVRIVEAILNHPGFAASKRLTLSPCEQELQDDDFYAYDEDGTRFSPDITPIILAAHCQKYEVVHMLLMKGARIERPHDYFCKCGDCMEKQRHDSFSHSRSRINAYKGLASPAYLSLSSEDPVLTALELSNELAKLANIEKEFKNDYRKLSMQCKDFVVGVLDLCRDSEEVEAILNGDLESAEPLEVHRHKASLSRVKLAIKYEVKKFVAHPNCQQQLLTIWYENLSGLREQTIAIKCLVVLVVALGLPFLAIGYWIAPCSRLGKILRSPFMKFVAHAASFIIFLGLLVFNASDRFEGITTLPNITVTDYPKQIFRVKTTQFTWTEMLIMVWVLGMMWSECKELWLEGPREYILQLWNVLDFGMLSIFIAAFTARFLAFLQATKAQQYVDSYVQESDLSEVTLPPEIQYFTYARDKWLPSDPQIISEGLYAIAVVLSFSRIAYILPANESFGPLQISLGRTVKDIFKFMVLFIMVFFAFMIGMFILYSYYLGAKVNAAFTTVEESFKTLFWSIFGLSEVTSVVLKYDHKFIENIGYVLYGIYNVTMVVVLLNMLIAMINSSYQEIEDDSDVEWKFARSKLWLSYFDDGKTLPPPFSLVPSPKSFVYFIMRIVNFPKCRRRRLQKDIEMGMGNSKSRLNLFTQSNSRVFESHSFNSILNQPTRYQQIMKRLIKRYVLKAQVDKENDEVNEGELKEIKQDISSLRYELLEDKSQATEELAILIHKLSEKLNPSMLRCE
To be noted: literature ref 20; read-out: reported IC50 for suppression of TRPC3; cited from earlier work.

The target in data set [8] is T1, TRPC3. The experiment in a line: whole-cell patch clamp of HEK293 cells transfected with hTRPC3, currents activated by GSK1702934A. The class given is cell-based. Also noted: expressed in transfected cells; host or cells: HEK293 (CRL-1573), transient transfection, pMO vector. On the procedure: Human embryonic kidney 293 (HEK293; catalog number CRL-1573) cells were cultured in Dulbecco's modified Eagle's medium (Invitrogen) supplemented with 10% fetal bovine serum and 1% penicillin-streptomycin at 37° C. and 5% CO2. Constructs cloned in pMO (a pcDNA3-modified vector) were co-transfected with GFP-pMO, using Lipofectamine 2000 (Invitrogen) according to the manufacturer's instructions. Macroscopic currents in the whole-cell patch clamp configuration were recorded 18-24 h post-transfection. The extracellular solution contained 140 mM NaCl, 6 mM KCl, 2 mM MgCl2, 10 mM HEPES, and 10 mM glucose (pH 7.4). Pipettes were made of borosilicate glass (outer diameter, 1.5 mm; inner diameter, 1.10 mm; Sutter Instruments) and fire-polished with a resistance between 2.8 and 4.0 megaohms when filled with an intracellular solution that contained 140 mM CsCl, 5 mM EGTA, and 10 mM HEPES, pH 7.2. Currents were recorded with a Multiclamp 700B amplifier (Molecular Devices) using a 1-s ramp from −100 to 100 mV. Agonist and antagonists perfused were dissolved in the bath solution prior experiments: TRP channel agonists Allyl isothiocyanate (AITC; TRPA1), capsaicin (TRPV1), and menthol (TRPM8) were obtained from Sigma, GSK1016790A (TRPV4) from Cayman chemicals, and GSK1702934A (TRPC3, TRPC6 and TRPC7) from Tocris Bioscience. Antagonist Pyr3 was obtained from Tocris Bioscience, all other antagonists were synthesized in house. Data were acquired with a sampling rate of 20 kHz, low-pass filtered (10 kHz), and analyzed offline using Clampfit v10.4.2.0 (Molecular Devices).
Electrophysiology results were expressed as means±SD. Data were plotted, and sigmoidal fitting was done using OriginPro (from OriginLab), with the following Boltzmann function:
Using the patch clamp technique in the whole-cell configuration, compounds were screened by challenging hTRPC3 overexpressing HEK293 cells with GSK1702934A to activate TRPC3 and each of the synthesized compounds (10 μM) individually in the presence of the agonist.
To avoid tachyphylaxis and determine the IC50 of compound 22, each point of the dose response curve (FIG. 1B) was done individually on a cell and exchanging coverslips between cells. […] FIGS. 1D-1I show the inhibition of TRPC3-mediated currents by compound 22 and Pyr3 (serving as the reference control). […] Similar results were obtained when OAG was used as the agonist (data not shown).
In general terms: The patch-clamp technique gives a direct electrical read-out from membranes.

Read-outs that look alike come from different tables or passages of the source.

On to `CCOC(=O)c1cnn(-c2ccc(-n3ccc(Cl)c(Br)c3=O)cc2)c1C(F)(F)F` [Compound 8, Ethyl 1-(4-(3-bromo-4-chloro-2-oxopyridin-1(2H)-yl)phenyl)-5-(trifluoromethyl)-1H-pyrazole-4-carboxylate], for which the “survival of treated mice” value in data set [1] is reported as “alive”.

Consider `CCOC(=O)c1cnn(-c2ccc(NC(=O)C(Cl)=C(Cl)Cl)cc2)c1C(F)(F)F` [Pyr3, reference compound], for which the half-life time entry in data set [2], in data set [3] and in data set [4] was “less than 15 minutes” throughout. Also, the “protection against Aβ-induced damage to dendrites (MAP2/DAPI)” value in data set [5] is recorded as “protect against Aβ-induced damage to dendrites”. Besides, the “toxicity in neuronal culture” value in data set [6] is reported as “lack of toxicity”. In addition, the IC50 was 700 nM in data set [7] and 0.53 ± 0.05 µM in data set [8] (agonist GSK1702934A, HEK293 whole-cell patch clamp, read-out: hTRPC3 IC50 (μM, mean ± SEM)). For the same compound, the “hTRPC3 % Inhibition at 10 μM (mean ± SEM)” value in data set [8] (10 μM compound in presence of agonist GSK1702934A, HEK293 whole-cell peak current) is reported as 91.72 ± 0.53%.

As usually defined, the IC50 is the midpoint of a concentration-inhibition curve.
